Test results reported in US20220257541A1, “Lacosamide for the Treatment of ADD/ADHD” (priority 2019, published 2022).

What was measured:
[1] = tested on: patient suffering from ADHD; assay: Case Study 2: lacosamide mono-therapy in a person with ADHD; format: in vivo, human; conditions: mono-therapy for several weeks
Description: We conducted a second case study to validate earlier results of Case Study 1. The patient was a person suffering from ADHD (with no comorbidity such as epilepsy or bipolar disorder). The patient was treated with a lacosamide mono-therapy for several weeks based on the conventional treatment regime for lacosamide (for the treatment of epilepsy and/or bipolar disorder) for subjects weighting 50 kg or more.

[2] = tested on: children and adolescents with ADHD syndrome; assay: Case Study 3: 'PASA' clinical questionnaire (Thinking, Mood, Sleep, Alterity); format: in vivo, human
Description: This study describes a series of cases of 12 children and adolescents (aged between 7 and 17 year old) treated with lacosamide. The patients were from 3 different orphanages and under the general supervision of a tutor.
We administrated doses adjusted to age and weight of each patient, in line with the therapeutic doses described herein. Specifically, lacosamide was administered to the patients following the approved treatment regimen for lacosamide (Vimpat®) in epileptic children from 4 years of age as per Table 1 above. The patients were at constant supervision of the tutor and other personnel of the orphanages.
After being selected by the tutors, children were evaluated during a clinical consultation carried out in their own institution. Through this consultation, we verified the clinical condition of each child or adolescent, their records and anamnesis, if any. We also filled out the Clinical story forms. At the same time, we performed the first ‘PASA’ Evaluation. The ‘PASA’ Test is a clinical questionnaire that was developed by the inventor of the present application (see FIG. 1 for questionnaire questions). It includes examination of Thinking (“P” for “Pensamiento”), Mood (“A” for “Animo”), Sleep (“S” for “Sueno”) and Alterity (“A” for “Alteridad”).
‘PASA’ Evaluation was repeated every 60 days after initiating the medication. The four editions of this questionnaire were compared and analysed, drawing a close-up portrait of the clinical evolution of these cases.
The overall trend is very favourable in all cases. Patients' symptoms improved in all categories. In this study, the patients were evaluated before treatment with lacosamide (evaluation 1) and every 2 months in the course of the treatment.

[3] = tested on: children and adolescents with ADHD syndrome; assay: Case Study 3: Test of Nonverbal Intelligence (TONI-2); format: in vivo, human
Description: (§1) These tests offered an objective element that contributed to the establishment of the diagnosis.
(§2) Neuropsychological evaluation was repeated after six months on medication, at the end of the study. These evaluations were guided by trained neuropsychologists. Four different evaluations were conducted: Continuous Performance Test (CPT)1, STROOP-P test, Wisconsin Card sorting Test and the Non Verbal Intelligence Test.
The patients were assessed using the Test of Nonverbal Intelligence (TONI-2), which is a language-free measure of abstract problem-solving ability.

[4] = tested on: children and adolescents with ADHD syndrome; assay: Case Study 3: Wisconsin Card Sorting Test (WCST) Reasoning; format: in vivo, human; conditions: second evaluation
Description: as §1, §2
The patients were assessed using the Wisconsin Card Sorting Test (WCST), which is used to measure higher-level cognitive processes, such as attention, perseverance, abstract thinking, and set shifting. It is particularly used in clinical fields to measure perseverative behaviours that refer to an individual's insistence on wrong behaviour.

[5] = tested on: children and adolescents with ADHD syndrome; assay: Case Study 3: STROOP-P test; format: in vivo, human
Description: as §1, §2
The patients were assessed using the STROOP-P test, which is used to assess the ability to inhibit cognitive interference that occurs when the processing of a specific stimulus feature impedes the simultaneous processing of a second stimulus attribute, well-known as the Stroop Effect.

[6] = tested on: children and adolescents with ADHD syndrome; assay: Case Study 3: IQ test prior to and after treatment; format: in vivo, human; conditions: for IQ: Post-treatment, patient
Description: IQ was tested prior to and after treatment.

[7] = tested on: children and adolescents with ADHD syndrome; assay: Case Study 3: Tutors evaluation pre to post treatment (DSM-V questionnaire); format: in vivo, human
Description: The Tutors Pre-Post Evaluation (self-administrated) was performed at the end of the study. This assessment required the person responsible for the patient's everyday life and care to evaluate the progression through the period of the study, including intellectual and behavioural changes.
The tutors have evaluated the patients using the DSM-V questionnaire, which is typically used as a standard to classify mental disorders by mental health professionals in the United States.

[8] = tested on: voltage-gated sodium channels; conditions: cited from earlier work
[9] = tested on: voltage-gated calcium channels (L-, N-, P/Q, T-type channels); conditions: cited from earlier work
[10] = tested on: AMPA, kainate, NMDA, GABAA, GABAB, dopaminergic, serotonergic, adrenergic, muscarinic or cannabinoid receptors; conditions: cited from earlier work
[11] = tested on: reuptake of norepinephrine, dopamine, and serotonin; conditions: cited from earlier work
[12] = after treatment, ~75% at the beginning

COC[C@@H](NC(C)=O)C(=O)NCc1ccccc1 [lacosamide, (2R)-2-(acetylamino)-N-benzyl-3-methoxypropanamide]
ADHD symptomatology [1]: slowly regressed | cognitive functionality [1]: significant improvement | Mood and Sleep symptoms in most patients ([2]; 12 patients, 6 months): complete or nearly complete alleviation of the symptoms | all tested 'PASA' categories (Sleep Activity, Thoughts, Mood) ([2]; 12 patients, 6 months): positive impact | patients with depressive unjustified feelings ([2]; after six months of treatment, from 25%): 0% | patients with irritability ([2]; after treatment, from 33.3%): 16.7% | patients with cenesthesia [2, 12]: 8.3% | patients with hyper emotion [2, 12]: 25% | patients with hypomania [2, 12]: 16.7% | patients with lethargy [2, 12]: 8.3% | patients with mood change [2, 12]: 0% | patients with tiredness [2, 12]: 8.3% | Trend of Thought: Disordered ([2]; end of study (6 months), 67% of 12 patients before treatment): completely disappeared | Trend of Thought: Overabundant ([2]; end of study (6 months), 83% of 12 patients before treatment): completely disappeared | distressing thoughts ([2]; end of study, 17% of patients at the beginning): completely eliminated | patients with difficulties with falling asleep ([2]; end of study, from 75%): 0% | patients with sleep interruption ([2]; end of study, from 83%): 8.3% | patients with sudden off-sense disconnections (spacing out) ([2]; end of study, initially 50%): 33% | patients with dysphasia (inability of sustaining attention or understanding a long phrase) ([2]; end of study, initially 83%): 42% | patients with second thoughts disturbing concentration ([2]; end of study, initially 83%): 42% | patients with cenesthesic presences (sleep) ([2]; end of the trial period, from 75%): 8.3% | general state after waking up, sleeping without interruptions and ease of sleep ([2]; four evaluations over 6 months): improvement | realistic dreams ([2]; four evaluations over 6 months): not significantly affected | patients with blocking thoughts ([2]; in the course of treatment, 50% at the beginning): 25% | Hypercritical thinking ([2]; over the course of the study): small improvement | Tachypsychia ([2]; over the course of the study): small improvement | non-verbal reasoning: number of subjects who reached the high average level ([3]; after six months on medication): doubling | patients scoring high average in TONI-2 ([3]; end of the tested period, from 16.7%): 33.3% | patients scoring average in TONI-2 ([3]; end of the tested period, from 50%): 58.3% | patients in Severe Deterioration category, WCST Reasoning ([4]; 50% in the first evaluation): 25% | patients in the 3 highest categories, WCST Reasoning ([4]; from 41.7%): 58.3% | ability to inhibit cognitive interference ([5]; measured in both cerebral hemispheres): positive but to a limited extent | patients with Average result, STROOP-P ([5]; second test, 8.3% in the first evaluation): 25% | patients with Severe Deterioration, STROOP-P ([5]; second test, 25% initially): 8.3% | patients who maintained previous IQ levels ([6]; 12 patients tested): 23% | patients who raised their IQ values ([6]; 12 patients tested): 77% | patients with a lowering of the IQ value ([6]; 12 patients tested): In none of the patients | IQ ([6]; 2nd High School, Pre-treatment CI-80): CI-90 | IQ ([6]; 2nd High School, Pre-treatment CI-99): CI-112 | IQ ([6]; 2nd Primary, Pre-treatment CI-94): CI-106 | IQ ([6]; 3rd Primary, Pre-treatment CI-82): CI-82 | IQ ([6]; 3rd Primary, Pre-treatment CI-117): CI-117 | IQ ([6]; 5th Primary, Pre-treatment CI-81): CI-91 | IQ ([6]; 5th Primary, Pre-treatment CI-91): CI-95 | IQ ([6]; 5th Primary, Pre-treatment CI-95): CI-104 | IQ ([6]; 5th Primary, Pre-treatment CI-111): CI-111 | IQ ([6]; 6th Primary, Pre-treatment CI-93): CI-95 | IQ ([6]; 7th Primary, Pre-treatment CI-87): CI-91 | IQ ([6]; Bachelor, Pre-treatment CI-108): CI-114 | IQ progression on average ([6]; subgroup of 33% of the patients): four | IQ progression average ([6]; subgroup of 40% of the patients): around 11±2 points | patients in the subgroup with the smaller IQ progression ([6]; subgroup that progressed on average by four points): 33% | patients in the subgroup with the larger IQ progression ([6]; subgroup with progression average of around 11±2 points): 40% | global IQ increase ([6]; sum for 12 patients tested): 60 points | behaviour, tutors' DSM-V questionnaire [7]: significantly improved across all tested elements | fast inactivation of voltage-gated sodium channels [8]: without affecting | slow inactivation of voltage-gated sodium channels [8]: enhances | inhibition of voltage-gated calcium channels (L-, N-, P/Q, T-type) [9]: not to inhibit | effect on AMPA, kainate, NMDA, GABAA, GABAB, dopaminergic, serotonergic, adrenergic, muscarinic or cannabinoid receptors [10]: does not affect | modulation of reuptake of norepinephrine, dopamine, and serotonin [11]: does not modulate
